{
  "source": "patent US20140249101A1",
  "about": "“METHODS FOR TREATING HEPATITIS C VIRUS INFECTION” (Gilead Pharmasset LLC, priority 2013, published 2014)",
  "origin": "cited, not measured here",
  "tested_on": "hepatitis C virus (HCV)",
  "conditions": "ribavirin alone",
  "note": "“Also recorded” adds a separate entry of the source.",
  "data": [
    {"smiles": "NC(=O)c1ncn([C@@H]2O[C@H](CO)[C@@H](O)[C@H]2O)n1", "note": "[ribavirin, 1-β-d-ribofuranosyl-1H-1,2,4-triazole-3-carboxamide]", "values": [
      {"measurement": "sustained virologic response", "value": "did not produce any sustained virologic response; also recorded: has not been shown to produce SVR"},
      {"measurement": "effect on HCV RNA levels", "setting": "during or after therapy", "value": "did not reduce HCV RNA levels during or after therapy; also recorded: little or no effect on HCV RNA levels"},
      {"measurement": "effect on alanine aminotransferase (ALT) levels", "setting": "during the course of treatment, some patients with CHC", "value": "can normalize alanine aminotransferase (ALT) levels transiently; also recorded: normalized alanine aminotransferase (ALT) levels transiently"}
    ]}
  ]
}
